Source: US20110263539A1, “SHIP 1 MODULATOR COMPOUNDS” (THE UNIVERSITY OF BRITISH COLUMBIA, priority 2006, published 2011)

Tests used:
[1] = Initial toxicology studies; format: in vivo; details: data not shown
From the text: A novel paradigm for inhibiting PI3K signaling through activation of the phosphatases that negatively regulate this pathway is provided. SHIP is a particularly good target for immune/hematopoietic disorders because of its restricted expression to hematopoietic cells. Because the relative activity of phosphatases present in a cell will influence the efficacy of kinase inhibitors, as discussed by Knight and Shokat, SHIP agonists may also be used to potentiate the activation of PI3K inhibitors and promote tissue targeting of PI3K inhibitors to the ematopoietic/immune cell compartment.

[2] = tested on: MM cell lines; experiment: In vitro Multiple Myeloma (MM) assay (Assay 7); format: cell-based; further: key: a ‘+’ indicates a positive result for desired activity; a ‘−’ indicates a negative result for desired activity
Method: Assay 7) In vitro Multiple Myeloma (MM) assay. The ability of SHIP activators to reduce tumor cell survival was assessed in MM cell lines treated with the test compound. The lines OPM1, OPM2, MM.1S and RPMI 8226 were plated at a density of 1×10^5 cells/mL in 200 μL of medium with various concentrations of the test compound, and viable cell numbers were determined on day 3 and day 5 by trypan blue exclusion. The lines RPMI 8226 and U266 were plated at a density of 1×10^6 cells/mL in 250 μL of medium with various concentrations of the test compound. At day 4, the medium of each culture was replaced by fresh medium containing the same concentration of test compound. At day 7, the viable cell number of each culture was determined by trypan blue exclusion.
MM cell lines were cultured in 96 well plates seeded with 3×10^4 cells suspended in 200 μL of medium along with various concentrations of test compound (and associated cyclodextran vehicle control), with LY294002 serving as a positive control in the experiments. After 24-48 hrs of culture, […] of [3H]-thymidine (GE Healthcare, Baie D'Urfe, Canada) being added for the final 8 hours. Cells were harvested and DNA associated radioactivity was measured via liquid scintillation counting using a Wallac Microbeta counter (Perkin-Elmer; Boston, Mass.).
The ability of SHIP activators to reduce tumor cell survival was assessed in multiple myeloma (MM) cell lines treated with Compound 100 or AQX-016A. The lines OPM1, OPM2, MM.1S and RPMI 8226 were plated at a density of 1×10^5 cells/mL in 200 μL of medium with various concentrations of Compound 100, and viable cell numbers were determined on day 3 and day 5 by trypan blue exclusion. The lines RPMI 8226 and U266 were plated at a density of 1×10^6 cells/mL in 250 μL of medium with various concentrations of AQX-016A. At day 4, the medium of each culture was replaced by fresh medium containing the same concentration of AQX-016A. At day 7, the viable cell number of each culture was determined by trypan blue exclusion. Experiments were performed in triplicate.
Proliferation (DNA synthesis) assays. Proliferation was measured by measuring incorporation of [^3H]-thymidine into cells. MM cell lines were cultured in 96 well plates seeded with 3×10^4 cells suspended in 200 μL, of medium along with various concentrations of Compound 100 or AQX-016A (and associated cyclodextran vehicle control), with LY294002 serving as a positive control in the indicated experiments. After 24-48 hrs of culture, 1 μCi of [^3H]-thymidine (GE Healthcare, Baie D'Urfe, Canada) being added for the final 8 hours. Plates were frozen, which also aided in cell lysis, to terminate the experiments. Cells were then harvested onto glass fibre filters using an automatic cell harvester (TomTech; Orange, Conn.) and DNA associated radioactivity was measured via liquid scintillation counting using a Wallac Microbeta counter (Perkin-Elmer; Boston, Mass.). Wells were set up in triplicate and data is expressed as mean+/−SEM.

[3] = tested on: J774.1a macrophage cells; experiment: Macrophage TNF-α production (Assay 2); format: cell-based; details: 10 μg/mL test compound, 100 ng/mL LPS, ELISA; further: key: a ‘+’ indicates a positive result for desired activity; a ‘−’ indicates a negative result for desired activity
Method: Assay 2) Macrophage TNF-α production. J774.1a macrophage cells were treated with 10 μg/mL of test compound dissolved in solvent (e.g. cyclodextran) for 40 minutes prior to the addition of 100 ng/mL LPS. Culture supernatants were collected after 2 hr and 5 hr for TNF-α determination by ELISA.

[4] = tested on: neutrophil myeloperoxidase (MPO) activity; experiment: Mouse acute cutaneous anaphylaxis model (Assay 5); format: in vivo, CD1 mice; details: topical on ear, DNFB
Method: Assay 5) Mouse acute cutaneous anaphylaxis model. 6-8 week old CD1 mice
(§1) (University of British Columbia Animal Facility, Vancouver, BC) were sensitized to the hapten DNP by cutaneous application of 25 μL of 0.5% dinitrofluorobenzene (DNFB) (Sigma, Oakville, Ont) in acetone to the shaved abdomen of mice for two consecutive days. 24 hrs later, test substances (dissolved in 10 μL of 1:2 DMSO:MeOH) were painted on the right ear while the left ear received vehicle control. 30 min after drug application, DNFB was applied to both ears to induce mast cell degranulation. A 6 mm punch was taken from the ear and immediately frozen on dry ice for subsequent determination of neutrophil myeloperoxidase (MPO) activity.
as §1, with “Mouse acute cutaneous anaphylaxis model. 6-8 week old CD1 mice (University” for “(University”, “activity. Compound 100's ability to inhibit cutaneous anaphylaxis was assessed.” for “activity.”
Anaphylactic or allergic responses are mediated by allergen-induced degranulation of pre-sensitized mast cells. The mouse ear edema/cutaneous anaphylaxis model involves pre-sensitization of mice with the haptenizing agent dinitrofluorobenzene (DNFB). One week later the allergic reaction is elicited by painting DNFB onto the ears of the mice. The efficacy of potential anti-inflammatory compounds is tested by topical application of the test substance to one ear and comparing the resulting ear edema or inflammation of the two ears.

[5] = tested on: J774.1a macrophage cells; experiment: Macrophage TNF-α NO assay (Assay 3); format: cell-based; details: 10 μg/ml test compound, LPS, 24 hr, Griess reagent; further: key: a ‘+’ indicates a positive result for desired activity; a ‘−’ indicates a negative result for desired activity
Method: Assay 3) Macrophage TNF-α NO assay. J774.1a macrophage cells were treated with 10 μg/ml of test compound dissolved in solvent for 40 minutes prior to the addition of LPS. Culture supernatants were collected after 24 hr. for determination of NO concentration using the Griess reagent.

[6] = tested on: luciferase expressing OPM2 cells; experiment: In vivo Multiple Myeloma (MM) assay (Assay 8); parameters: species or system Mice; details: 50 mg/kg every 3 days, subcutaneous oil depot
Method: Assay 8) In vivo Multiple Myeloma (MM) assay. Mice were inoculated with at two sites each with 3×10^6 luciferase expressing OPM2 cells suspended in 50 μL of growth medium and 50 μL of Matrigel basement membrane matrix (Becton Dickenson; Bedford, Mass.). Tumors were injected subcutaneously in the upper and lower flanks of the mice and allowed to establish for 2 weeks. After 2 weeks, a test compound or control vehicle was administered in a subcutaneous oil depot at a dose of 50 mg/kg every 3 days.
Tumors were measured using bioluminescence imaging on the Xenogen IVIS 200. Mice received intra-peritoneal injections of 200 μL of D-luciferin at 3.75 mg/mL in sterile PBS. Mice were then anesthetized with isofluorane and imaged 15 minutes post-injection of luciferin. Quantification of tumor size was performed using the Living Image™ software.
MM Xenograft murine model. Mice were inoculated with at two sites each with 3×10^6 luciferase expressing OPM2 cells suspended in 50 μL of growth medium and 50 μL of Matrigel basement membrane matrix (Becton Dickenson; Bedford, Mass.). Tumors were injected subcutaneously in the upper and lower flanks of the mice and allowed to establish for 2 weeks. […]
Tumors were measured using bioluminescence imaging on the Xenogen IVIS 200. […] Quantification of tumor size was performed using the Living Image™ software. […]

[7] = tested on: LNCaP cells; experiment: PKB activation in LNCaP cells; format: cell-based, human; details: doses up to 60 μM
Method: The ability of AQX-016A to inhibit activation of PIP3-dependent downstream signalling proteins in SHIP^+/+ vs SHIP^−/− cells was assessed. LPS stimulation of macrophages results in PKB phosphorylation. […] Similar protein loading was confirmed by reblotting with either antibodies to PKB or Grb2. […] Thus, AQX-016A inhibits PIP3-regulated intracellular signal transduction events in SHIP expressing hematopoietic cells, but not in SHIP-deficient hematopoietic or non-hematopoietic cells.

With `Cc1cc(O)c(O)c2c1[C@]1(C)CCC3C(C)(C)CCC[C@]3(C)[C@H]1C2` (stereo partly shown) [AQX-016A] the “peripheral blood cell counts or bone marrow progenitor numbers” value [1] was “do not significantly affect”, the “Assay Number 7: In vitro Multiple Myeloma (MM) assay” value [2] was “+” and the “Assay Number 2: Macrophage TNF-α production” value [3] was “+”. The “Assay Number 5: Mouse acute cutaneous anaphylaxis model” value [4] was “+”, the “Assay Number 3: Macrophage NO” value [5] was “+” and the “Assay Number 8: In vivo Multiple Myeloma (MM) assay” value [6] was “+”. For the same compound, the PKB phosphorylation [7] was “no effect”.
